Experimental data from patent publication US9149038B2, “4-amino-6-(heterocyclic)picolinates and 6-amino-2-(heterocyclic)pyrimidine-4-carboxylates and their use as herbicides” (Dow AgroSciences LLC, priority 2013, dated 2015).
Read-outs that look alike come from different tables or passages of the source.

Test system: Direct Seeded Rice and weed species
Assay: Postemergence herbicidal activity in direct seeded rice, visual rating after 20-22 days and probit GR20/GR50/GR80/GR90 (Table 14)
Assay type: in vivo
Conditions: for pest or weed control at 17.5 g/ha / pest or weed control at 35 g/ha / pest or weed control at 70 g/ha: post-emergence, 504 h, postemergence; for pest or weed control at 17.5 g/ha: 17.5 g ai/ha; for pest or weed control at 35 g/ha: 35 g ai/ha; for pest or weed control at 70 g/ha: 70 g ai/ha
Procedure, shortened: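 Rice and weeds grown in loam–sand soil (pH about 8.1) in greenhouse to 2nd–3rd true leaf, then sprayed postemergence at 187 L/ha in acetone/DMSO with 1.25% (v/v) Agri-dex crop oil. Injury rated visually 0–100 after 20-22 days versus untreated plants; GR20, GR50, GR80, GR90 obtained by probit analysis across dose rates.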

[1] = BRAPP (broadleaf signalgrass, Brachiaria platyphylla), read-out: Visual Growth Reduction (%) 21 Days After Application BRAPP
[2] = CYPDI (small-flower flatsedge, Cyperus difformis), read-out: Visual Growth Reduction (%) 21 Days After Application CYPDI
[3] = CYPES (yellow nutsedge, Cyperus esculentus), read-out: Visual Growth Reduction (%) 21 Days After Application CYPES
[4] = CYPIR (rice flatsedge, Cyperus iria), read-out: Visual Growth Reduction (%) 21 Days After Application CYPIR
[5] = DIGSA (large crabgrass, Digitaria sanguinalis), read-out: Visual Growth Reduction (%) 21 Days After Application DIGSA
[6] = ECHCG (barnyardgrass, Echinochloa crus-galli), read-out: Visual Growth Reduction (%) 21 Days After Application ECHCG
[7] = ECHCO (junglerice, Echinochloa colonum), read-out: Visual Growth Reduction (%) 21 Days After Application ECHCO
[8] = LEFCH (Chinese sprangletop, Leptochloa chinensis), read-out: Visual Growth Reduction (%) 21 Days After Application LEFCH
[9] = ORYSJ (Oryza sativa, rice crop), read-out: Visual Growth Reduction (%) 21 Days After Application ORYSJ
[10] = ORYSK (Oryza sativa, rice crop), read-out: Visual Growth Reduction (%) 21 Days After Application ORYSK
[11] = SCPJU (Japanese bulrush, Schoenoplectus juncoides Roxb.), read-out: Visual Growth Reduction (%) 21 Days After Application SCPJU
[12] = SEBEX (hemp sesbania, Sesbania exaltata), read-out: Visual Growth Reduction (%) 21 Days After Application SEBEX

COc1c(N)nc(-c2ccc3c(c2F)OC(F)(F)O3)nc1C(=O)O [Compound 66]
GR50 BRAPP (BRAPP (Brachiaria platyphylla), probit analysis, dose for 50 percent growth reduction): 2 g ai/ha | GR80 BRAPP (BRAPP (Brachiaria platyphylla), probit analysis, dose for 80 percent growth reduction): 7 g ai/ha | GR90 BRAPP (BRAPP (Brachiaria platyphylla), probit analysis, dose for 90 percent growth reduction): 16 g ai/ha | GR50 CYPDI (CYPDI (Cyperus difformis), probit analysis, dose for 50 percent growth reduction): 0.42 g ai/ha | GR80 CYPDI (CYPDI (Cyperus difformis), probit analysis, dose for 80 percent growth reduction): 3 g ai/ha | GR90 CYPDI (CYPDI (Cyperus difformis), probit analysis, dose for 90 percent growth reduction): 6 g ai/ha | GR50 CYPES (CYPES (Cyperus esculentus), probit analysis, dose for 50 percent growth reduction): 0.0001 g ai/ha | GR80 CYPES (CYPES (Cyperus esculentus), probit analysis, dose for 80 percent growth reduction): 0.0001 g ai/ha | GR90 CYPES (CYPES (Cyperus esculentus), probit analysis, dose for 90 percent growth reduction): 0.0001 g ai/ha | GR50 CYPIR (CYPIR (Cyperus iria), probit analysis, dose for 50 percent growth reduction): 9 g ai/ha | GR80 CYPIR (CYPIR (Cyperus iria), probit analysis, dose for 80 percent growth reduction): 15 g ai/ha | GR90 CYPIR (CYPIR (Cyperus iria), probit analysis, dose for 90 percent growth reduction): 19 g ai/ha | GR50 DIGSA (DIGSA (Digitaria sanguinalis), probit analysis, dose for 50 percent growth reduction): 2 g ai/ha | GR80 DIGSA (DIGSA (Digitaria sanguinalis), probit analysis, dose for 80 percent growth reduction): 21 g ai/ha | GR90 DIGSA (DIGSA (Digitaria sanguinalis), probit analysis, dose for 90 percent growth reduction): 77 g ai/ha | GR50 ECHCG (ECHCG (Echinochloa crus-galli), probit analysis, dose for 50 percent growth reduction): 3 g ai/ha | GR80 ECHCG (ECHCG (Echinochloa crus-galli), probit analysis, dose for 80 percent growth reduction): 7 g ai/ha | GR90 ECHCG (ECHCG (Echinochloa crus-galli), probit analysis, dose for 90 percent growth reduction): 12 g ai/ha | GR50 ECHCO (ECHCO (Echinochloa colonum), probit analysis, dose for 50 percent growth reduction): 2 g ai/ha | GR80 ECHCO (ECHCO (Echinochloa colonum), probit analysis, dose for 80 percent growth reduction): 6 g ai/ha | GR90 ECHCO (ECHCO (Echinochloa colonum), probit analysis, dose for 90 percent growth reduction): 11 g ai/ha | GR50 LEFCH (LEFCH (Leptochloa chinensis), probit analysis, dose for 50 percent growth reduction): 105 g ai/ha | GR80 LEFCH (LEFCH (Leptochloa chinensis), probit analysis, dose for 80 percent growth reduction): 227 g ai/ha | GR90 LEFCH (LEFCH (Leptochloa chinensis), probit analysis, dose for 90 percent growth reduction): 339 g ai/ha | GR20 ORYSJ (ORYSJ (Oryza sativa, rice crop), probit analysis, dose for 20 percent growth reduction): 2 g ai/ha | GR20 ORYSK (ORYSK (Oryza sativa, rice crop), probit analysis, dose for 20 percent growth reduction): 11 g ai/ha | GR50 SCPJU (SCPJU (Schoenoplectus juncoides Roxb.), probit analysis, dose for 50 percent growth reduction): 0.0001 g ai/ha | GR80 SCPJU (SCPJU (Schoenoplectus juncoides Roxb.), probit analysis, dose for 80 percent growth reduction): 0.0001 g ai/ha | GR90 SCPJU (SCPJU (Schoenoplectus juncoides Roxb.), probit analysis, dose for 90 percent growth reduction): 0.0001 g ai/ha | GR50 SEBEX (SEBEX (Sesbania exaltata), probit analysis, dose for 50 percent growth reduction): 8 g ai/ha | GR80 SEBEX (SEBEX (Sesbania exaltata), probit analysis, dose for 80 percent growth reduction): 19 g ai/ha | GR90 SEBEX (SEBEX (Sesbania exaltata), probit analysis, dose for 90 percent growth reduction): 28 g ai/ha | pest or weed control at 17.5 g/ha [1]: 85 to 94% | pest or weed control at 35 g/ha [1]: 95 to 100% | pest or weed control at 70 g/ha [1]: 95 to 100% | pest or weed control at 17.5 g/ha [2]: 95 to 100% | pest or weed control at 35 g/ha [2]: 95 to 100% | pest or weed control at 70 g/ha [2]: 95 to 100% | pest or weed control at 17.5 g/ha [3]: 95 to 100% | pest or weed control at 35 g/ha [3]: 95 to 100% | pest or weed control at 70 g/ha [3]: 95 to 100% | pest or weed control at 17.5 g/ha [4]: 95 to 100% | pest or weed control at 35 g/ha [4]: 95 to 100% | pest or weed control at 70 g/ha [4]: 95 to 100% | pest or weed control at 17.5 g/ha [5]: 75 to 84% | pest or weed control at 35 g/ha [5]: 85 to 94% | pest or weed control at 70 g/ha [5]: 85 to 94% | pest or weed control at 17.5 g/ha [6]: 95 to 100% | pest or weed control at 35 g/ha [6]: 95 to 100% | pest or weed control at 70 g/ha [6]: 95 to 100% | pest or weed control at 17.5 g/ha [7]: 95 to 100% | pest or weed control at 35 g/ha [7]: 95 to 100% | pest or weed control at 70 g/ha [7]: 95 to 100% | pest or weed control at 17.5 g/ha [8]: 0 to 29% | pest or weed control at 35 g/ha [8]: 0 to 29% | pest or weed control at 70 g/ha [8]: 30 to 44% | pest or weed control at 17.5 g/ha [9]: 60 to 74% | pest or weed control at 35 g/ha [9]: 85 to 94% | pest or weed control at 70 g/ha [9]: 85 to 94% | pest or weed control at 17.5 g/ha [10]: 30 to 44% | pest or weed control at 35 g/ha [10]: 60 to 74% | pest or weed control at 70 g/ha [10]: 85 to 94% | pest or weed control at 17.5 g/ha [11]: 95 to 100% | pest or weed control at 35 g/ha [11]: 95 to 100% | pest or weed control at 70 g/ha [11]: 95 to 100% | pest or weed control at 17.5 g/ha [12]: 60 to 74% | pest or weed control at 35 g/ha [12]: 95 to 100% | pest or weed control at 70 g/ha [12]: 95 to 100%
